SMILES strings stand for the structures.

In this experiment the test system is Morganella morganii. The experiment can be described thus: Reduction of the indicator by wild Enterobacteriaceae strain (fluorescence). It counts as cell-based. As to conditions: 0.17 mmol/l. As to the method: The E. coli was grown for 24 hours at 35° C. on Columbia agar supplemented with sheep blood. The bacteria were then resuspended in sterile, distilled water and their density was adjusted to 0.5 on the MacFarland scale (i.e. about 10^8 cells/ml). This suspension was then diluted 100-fold in sterile Mueller-Hinton broth (i.e. to a final density of about 10^6 cells/ml).
Fifty microliters of each nitrocoumarin solution plus 50 μl of bacterial suspension were then added to the wells of a microtiter plate. The plates were incubated at 35° C. and the optical density and fluorescence of each well was read every 30 min for a total of 4 hours. Optical density (690 nm) readings were made using an Anthos 2001 spectrophotometer (Labtech International Limited), and fluorescence (excitation at 365 nm and emission at 440 nm) readings were made on a Biolite F1 2001 fluorometer (Labtech International Limited).
This experiment was designed to investigate whether or not it would be possible to detect Enterobacteriaceae other than E. coli using 7-nitrocoumarin-3-carboxylic acid. The conditions for this experiment were similar to those described for the first experiment (section A).
Five wild strains belonging to the species Citrobacter diversus, Enterobacter agglomerans, Hafnia alvei, Morganella morganii and Shigella sonnei were tested

As for `O=C(O)c1cc2ccc([N+](=O)[O-])cc2oc1=O` [7-nitrocoumarin-3-carboxylic acid], the Fluorescent signal was 0 (0 min); −42 (30 min); −24 (60 min); −15 (90 min); 31 (120 min); 95 (150 min). For the same compound, the Fluorescent signal is, setting by setting: (180 min) 403; (210 min) 2170; (240 min) 8128.

The values are drawn from patent US20020031795A1, “Nitrocoumarins for detecting all micro-organisms” (priority 1998, published 2002).
